One assay addresses T1, 5-HT1A receptor (Rattus norvegicus, UniProt P19327).
T1 construct: The cerebral cortex was homogenized in 10 volumes of ice-cold Tris buffer; from tissue; host or cells: rat cerebral cortex membranes
T1 sequence (P19327 1-422): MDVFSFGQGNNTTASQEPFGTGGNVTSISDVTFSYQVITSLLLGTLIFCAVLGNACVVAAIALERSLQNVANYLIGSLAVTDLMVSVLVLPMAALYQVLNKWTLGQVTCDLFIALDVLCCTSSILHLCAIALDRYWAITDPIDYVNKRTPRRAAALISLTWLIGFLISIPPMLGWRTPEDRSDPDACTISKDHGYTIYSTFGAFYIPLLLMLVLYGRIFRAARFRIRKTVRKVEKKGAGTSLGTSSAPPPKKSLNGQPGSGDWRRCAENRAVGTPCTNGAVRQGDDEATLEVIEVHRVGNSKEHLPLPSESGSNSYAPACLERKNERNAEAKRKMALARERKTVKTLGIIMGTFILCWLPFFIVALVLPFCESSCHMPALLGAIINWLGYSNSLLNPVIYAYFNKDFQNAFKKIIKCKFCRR
Description: Radioligand binding assay, 5-HT1A receptor ([3H]-8-OH-DPAT, rat cerebral cortex membranes). The protocol:
(§1) For all receptor binding assays, male Sprague-Dawley rats (Rattus norvegicus albinus), weighing 180-200 g, were killed by decapitation and the brains rapidly removed and dissected. Tissues were stored at −80° C. for subsequent use and homogenized on a Polytron PT-10 homogenizer. Membrane suspensions were centrifuged on a Beckman J2-HS instrument.
The cerebral cortex was homogenized in 10 volumes of ice-cold Tris buffer (50 mM Tris-HCl, pH 7.7 at 25° C.) and centrifuged at 28000 g for 15 min. The membrane pellet was washed twice by resuspension and centrifugation. After the second wash the resuspended pellet was incubated at 37° C. for 10 min. Membranes were then collected by centrifugation and the final pellet was resuspended in 50 mM Tris-HCl, 5 mM MgSO4, and 0.5 mM EDTA buffer (pH 7.4 at 37° C.). Fractions of 100 μL of the final membrane suspension (about 1 mg of protein) were incubated at 37° C. for 15 min with 0.6 nM [^3]-8-OH-DPAT (133 Ci/mmol), in the presence or absence of the competing drug, in a final volume of 1.1 mL of assay buffer (50 mM Tris-HCl, 10 nM clonidine, 30 nM prazosin, pH 7.4 at 37° C.). Nonspecific binding was determined with 10 μM 5-HT.
(§2) For all binding assays, competing drug, nonspecific, total and radioligand bindings were defined in triplicate. Incubation was terminated by rapid vacuum filtration through Whatman GF/B filters, presoaked in 0.05% poly(ethylenimine), using a Brandel cell harvester. The filters were then washed with the assay buffer, dried and placed in poly(ethylene) vials to which were added 4 mL of a scintillation cocktail (Aquasol). The radioactivity bound to the filters was measured by liquid scintillation spectrometry. The data were analyzed by an iterative curve-fitting procedure (program Prism, Graph Pad), which provided IC50, Ki, and r^2 values for test compounds, Ki values being calculated from the Cheng and Prusoff equation. The protein concentrations of the rat cerebral cortex and the rat striatum were determined by the method of Lowry, using bovine serum albumin as the standard.

A further assay deals with α1 adrenoceptor. Nature of the assay: Radioligand binding assay, α1 adrenoceptor ([3H]prazosin, rat cerebral cortex membranes). Particulars: rat cerebral cortex membranes; for Ki: 0.2 nM [3H]prazosin, hydrochloride salts, read-out: Ki ± SEM (α1); for percent value (α1): [3H]prazosin, footnote to * not given. The protocol:
as §1
The cerebral cortex was homogenized in 20 volumes of ice-cold buffer (50 mM Tris-HCl, 10 mM MgCl2, pH 7.4 at 25° C.) and centrifuged at 30000 g for 15 min. Pellets were washed twice by resuspension and centrifugation. Final pellets were resuspended in the same buffer. Fractions of the final membrane suspension (about 250 μg of protein) were incubated at 25° C. for 30 min with 0.2 nM [^3H]prazosin (23 Ci/mmol), in the presence or absence of six concentrations of the competing drug, in a final volume of 2 mL of buffer. Nonspecific binding was determined with 10 μM phentolamine.
as §2

Setting [1] is: rat cerebral cortex membranes, 0.6 nM [3H]-8-OH-DPAT, hydrochloride salts, read-out: Ki ± SEM (5-HT1A).

A word on the Ki: it is a dissociation constant, usually derived from enzyme kinetics or from competition with a known ligand.

Structures are written as SMILES. Like-named read-outs stand apart in the source and are kept apart here.

For the compound `C[C@@H]1CN(c2cccc3ccccc23)CCN1CCCCN1CC(=O)N2CCCC2C1=O` (mixture of isomers) [(a), (2R, 8aRS)-2-[4-[4-(Naphth-1-yl)-2-methylpiperazin-1-yl]butyl]-1,4-dioxoperhydropyrrolo[1,2-a]pyrazine], the Ki at 5-HT1A receptor (setting [1]) turned out to be 4.2 ± 0.9 nM; at α1 adrenoceptor it was 20.1 ± 0.8 nM.

For the compound `C[C@H]1CN(c2cccc3ccccc23)CCN1CCCCN1CC(=O)N2CCCC2C1=O` (mixture of isomers) [(b), (2S, 8aRS)-2-[4-[4-(Naphth-1-yl)-2-methylpiperazin-1-yl]butyl]-1,4-dioxoperhydropyrrolo[1,2-a]pyrazine], the Ki at 5-HT1A receptor (setting [1]) is 15.3 ± 1.8 nM; on α1 adrenoceptor, 34.4 ± 1.2 nM.

On to `C[C@@H]1CN(c2cccc(Cl)c2)CCN1CCCN1C(=O)C2CCCN2C1=O` (mixture of isomers) [(i), (2R,7aRS)-(−)-2-[3-[4-(3-Chlorophenyl)-2-methylpiperazin-1-yl]propyl]-1,3-dioxoperhydropyrrolo[1,2-c]imidazole], for which, at 5-HT1A receptor (setting [1]), the Ki was determined as 11.7 ± 3.4 nM. Moreover, in the assay on α1 adrenoceptor, the “percent value (α1)” value was found to be 76%*.

Regarding `COc1cccc(N2CCN(CCCN3C(=O)C4CCCN4C3=O)[C@@H](C)C2)c1` (mixture of isomers) [(j), (2S,7aRS)-(+)-2-[3-[4-(3-Methoxyphenyl)-2-methylpiperazin-1-yl]propyl]-1,3-dioxoperhydropyrrolo[1,2-c]imidazole], the Ki at 5-HT1A receptor (setting [1]) was 21.9 ± 5.1 nM. Also, the “percent value (α1)” value with α1 adrenoceptor came to 56%*.

`C[C@H]1CN(c2cccc3ccoc23)CCN1CCCN1C(=O)C2CCCN2C1=O` (mixture of isomers) [(k), (2S,7aRS)-(−)-2-[3-[4-(1-Benzofuran-7-yl)-2-methylpiperazin-1-yl]propyl]-1,3-dioxoperhydropyrrolo[1,2-c]imidazole]: the Ki on 5-HT1A receptor (setting [1]) is 6.7 ± 0.5 nM. Moreover, the “percent value (α1)” value with α1 adrenoceptor is recorded as 64%*.

As for `CC[C@@H]1CN(c2cccc3ccccc23)CCN1CCCCN1C(=O)C2CCCN2C1=O` (mixture of isomers) [(l), (2R,7aRS)-(−)-2-[4-[2-Ethyl-4-(naphth-1-yl)piperazin-1-yl]butyl]-1,3-dioxoperhydropyrrolo [1,2-c]imidazole], on 5-HT1A receptor (setting [1]), the Ki worked out at 2.4 ± 0.3 nM. The “percent value (α1)” value in the assay on α1 adrenoceptor is given as 87%*.

Turning to `C[C@@H]1CN(c2cccc3nc[nH]c23)CCN1CCCCN1C(=O)C2CCCN2C1=O` (mixture of isomers) [(m), (2R,7aRS)-(−)-2-[4-[4-(Benzimidazol-4-yl)-2-methylpiperazin-1-yl]butyl]-1,3-dioxoperhydropyrrolo[1,2-c]imidazole], the Ki is 2.3 ± 0.3 nM at 5-HT1A receptor (setting [1]) and > 1000 nM at α1 adrenoceptor.

With `CC[C@@H]1CN(c2cccc(OC)c2)CCN1CCCCN1C(=O)C2CCCN2C1=O` (mixture of isomers) [(o), (2R,7aRS)-(−)-2-[4-[2-Ethyl-4-(3-methoxyphenyl)piperazin-1-yl]butyl]-1,3-dioxoperhydropyrrolo[1,2-c]imidazole], on 5-HT1A receptor (setting [1]), the Ki was 21 ± 3 nM. Also, in the assay with α1 adrenoceptor, the “percent value (α1)” value worked out at 64%*.

With `Cc1ccc(N2CCN(CCCCN3C(=O)C4CCCN4C3=O)[C@@H](C)C2)c2ccccc12` (mixture of isomers) [(p), (2S,7aRS)-(+)-2-[4-[2-Methyl-4-(4-methylnaphth-1-yl)piperazin-1-yl]butyl]-1,3-dioxoperhydropyrrolo[1,2-c]imidazole], the affinity at 5-HT1A receptor, expressed as Ki, was 15.3 ± 0.8 nM. Also, the “percent value (α1)” value in the assay with α1 adrenoceptor stood at 75%*.

`C[C@H]1CN(c2ccccc2)CCN1CCCCN1C(=O)C2CCCN2C1=O` (mixture of isomers) [(q), (2S,7aRS)-(+)-2-[4-[2-Methyl-4-phenylpiperazin-1-yl]butyl]-1,3-dioxoperhydropyrrolo[1,2-c]imidazole]: at 5-HT1A receptor (setting [1]), the inhibition constant Ki came to 22.1 ± 0.1 nM. Also, the “percent value (α1)” value in the assay on α1 adrenoceptor was 62%*.

As to `C[C@H]1CN(c2cccc3nc[nH]c23)CCN1CCCCN1C(=O)C2CCCN2C1=O` (mixture of isomers) [(r), (2S,7aRS)-(+)-2-[4-[4-(Benzimidazol-4-yl)-2-methylpiperazin-1-yl]butyl]-1,3-dioxoperhydropyrrolo[1,2-c]imidazole], the Ki was 4.1 ± 0.3 nM on 5-HT1A receptor (setting [1]) and > 1000 nM on α1 adrenoceptor.

(Values after patent publication US20090036455A1, “ARYLPIPERAZINE DERIVATIVE AND USE THEREOF AS 5-HT1A RECEPTOR LIGANDS” (CEPA SCHWARZ PHARMA, S.L., priority 2004, published 2009).)
